Laboratory results as given in ChEMBL document CHEMBL2040736, “Design of potent and selective hybrid inhibitors of the mitotic kinase Nek2: structure-activity relationship, structural biology, and cellular activity” (J Med Chem, 2012).
pIC50: −log10 of the molar value.

Experiments:
[1] = molecular target: T1, Dual specificity protein kinase TTK (Homo sapiens, UniProt P33981); assay: Inhibition of MPS1 by caliper method
T1 sequence (P33981 whole entry): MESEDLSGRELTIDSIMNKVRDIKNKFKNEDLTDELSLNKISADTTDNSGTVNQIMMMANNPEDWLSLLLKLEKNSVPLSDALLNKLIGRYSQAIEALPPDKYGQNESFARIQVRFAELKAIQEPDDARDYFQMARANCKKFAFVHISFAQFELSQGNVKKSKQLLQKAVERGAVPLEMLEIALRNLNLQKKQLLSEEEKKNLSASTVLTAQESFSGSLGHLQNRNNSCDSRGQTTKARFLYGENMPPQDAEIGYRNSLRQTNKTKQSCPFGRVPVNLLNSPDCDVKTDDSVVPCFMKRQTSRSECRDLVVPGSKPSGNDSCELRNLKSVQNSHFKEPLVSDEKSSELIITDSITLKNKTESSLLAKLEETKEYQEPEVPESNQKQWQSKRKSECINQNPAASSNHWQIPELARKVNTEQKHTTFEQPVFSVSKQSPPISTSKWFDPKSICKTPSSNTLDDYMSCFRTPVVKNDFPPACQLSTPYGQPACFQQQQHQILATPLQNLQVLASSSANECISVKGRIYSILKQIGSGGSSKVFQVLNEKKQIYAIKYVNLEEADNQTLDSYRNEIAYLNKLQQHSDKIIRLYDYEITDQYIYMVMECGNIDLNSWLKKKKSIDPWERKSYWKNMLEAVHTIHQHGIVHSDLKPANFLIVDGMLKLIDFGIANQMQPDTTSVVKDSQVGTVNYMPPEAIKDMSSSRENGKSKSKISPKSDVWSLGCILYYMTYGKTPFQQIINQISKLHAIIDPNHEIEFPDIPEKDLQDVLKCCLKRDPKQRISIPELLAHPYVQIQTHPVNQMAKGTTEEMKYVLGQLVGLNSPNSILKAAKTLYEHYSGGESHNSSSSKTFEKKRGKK

[2] = molecular target: Mitogen-activated protein kinase 3 (Homo sapiens) (UniProt P27361); assay: Inhibition of Erk1 at 1 uM incubated for 30 mins prior to substrate addition study done at apparent ATP Km for enzyme
Mitogen-activated protein kinase 3 (Homo sapiens), sequence (P27361 whole entry): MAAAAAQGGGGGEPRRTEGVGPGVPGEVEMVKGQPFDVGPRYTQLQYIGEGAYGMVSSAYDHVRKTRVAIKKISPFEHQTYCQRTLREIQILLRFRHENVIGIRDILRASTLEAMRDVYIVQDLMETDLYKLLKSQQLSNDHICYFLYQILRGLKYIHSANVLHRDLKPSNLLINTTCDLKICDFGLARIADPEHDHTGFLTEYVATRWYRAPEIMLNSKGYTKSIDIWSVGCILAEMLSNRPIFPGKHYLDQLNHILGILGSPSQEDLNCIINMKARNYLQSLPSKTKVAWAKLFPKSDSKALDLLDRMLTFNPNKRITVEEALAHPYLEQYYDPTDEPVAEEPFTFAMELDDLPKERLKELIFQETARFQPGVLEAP

[3] = molecular target: Tyrosine-protein kinase ABL1 (Homo sapiens, UniProt P00519); assay: Inhibition of ABL at 1 uM incubated for 30 mins prior to substrate addition study done at apparent ATP Km for enzyme
Tyrosine-protein kinase ABL1, sequence (P00519 whole entry): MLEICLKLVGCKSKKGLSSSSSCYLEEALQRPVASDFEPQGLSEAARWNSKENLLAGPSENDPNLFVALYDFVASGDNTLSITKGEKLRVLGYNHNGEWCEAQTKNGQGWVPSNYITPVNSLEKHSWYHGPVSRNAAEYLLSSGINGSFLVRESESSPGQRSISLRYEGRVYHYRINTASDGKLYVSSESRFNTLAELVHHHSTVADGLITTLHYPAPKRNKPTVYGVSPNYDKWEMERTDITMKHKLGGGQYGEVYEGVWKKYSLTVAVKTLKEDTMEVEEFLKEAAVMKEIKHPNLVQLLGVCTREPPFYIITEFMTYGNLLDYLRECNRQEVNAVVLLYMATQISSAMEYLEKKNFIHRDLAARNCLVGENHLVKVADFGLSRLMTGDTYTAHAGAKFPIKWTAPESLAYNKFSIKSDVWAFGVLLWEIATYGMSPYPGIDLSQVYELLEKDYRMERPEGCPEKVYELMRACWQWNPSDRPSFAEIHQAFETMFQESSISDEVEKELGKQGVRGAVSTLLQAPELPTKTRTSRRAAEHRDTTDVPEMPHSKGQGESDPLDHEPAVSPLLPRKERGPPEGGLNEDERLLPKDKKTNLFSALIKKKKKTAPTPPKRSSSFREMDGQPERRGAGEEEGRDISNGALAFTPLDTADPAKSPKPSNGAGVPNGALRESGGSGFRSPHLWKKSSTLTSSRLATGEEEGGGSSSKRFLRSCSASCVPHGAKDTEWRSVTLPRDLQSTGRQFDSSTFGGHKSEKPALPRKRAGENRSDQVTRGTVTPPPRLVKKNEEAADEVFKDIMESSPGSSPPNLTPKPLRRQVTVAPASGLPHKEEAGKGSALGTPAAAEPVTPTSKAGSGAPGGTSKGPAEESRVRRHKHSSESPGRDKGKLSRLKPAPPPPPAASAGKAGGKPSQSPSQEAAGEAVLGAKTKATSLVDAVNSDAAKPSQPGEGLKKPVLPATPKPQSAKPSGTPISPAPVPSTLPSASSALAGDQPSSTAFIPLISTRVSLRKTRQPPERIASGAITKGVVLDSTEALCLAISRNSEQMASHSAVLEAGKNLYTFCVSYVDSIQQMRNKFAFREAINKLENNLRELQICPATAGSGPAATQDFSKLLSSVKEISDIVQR

[4] = molecular target: T2, Tyrosine-protein kinase Lyn (Homo sapiens, UniProt P07948); assay: Inhibition of LYN at 1 uM incubated for 30 mins prior to substrate addition study done at apparent ATP Km for enzyme
Target sequence in this assay (P07948 2-512 limits assumed): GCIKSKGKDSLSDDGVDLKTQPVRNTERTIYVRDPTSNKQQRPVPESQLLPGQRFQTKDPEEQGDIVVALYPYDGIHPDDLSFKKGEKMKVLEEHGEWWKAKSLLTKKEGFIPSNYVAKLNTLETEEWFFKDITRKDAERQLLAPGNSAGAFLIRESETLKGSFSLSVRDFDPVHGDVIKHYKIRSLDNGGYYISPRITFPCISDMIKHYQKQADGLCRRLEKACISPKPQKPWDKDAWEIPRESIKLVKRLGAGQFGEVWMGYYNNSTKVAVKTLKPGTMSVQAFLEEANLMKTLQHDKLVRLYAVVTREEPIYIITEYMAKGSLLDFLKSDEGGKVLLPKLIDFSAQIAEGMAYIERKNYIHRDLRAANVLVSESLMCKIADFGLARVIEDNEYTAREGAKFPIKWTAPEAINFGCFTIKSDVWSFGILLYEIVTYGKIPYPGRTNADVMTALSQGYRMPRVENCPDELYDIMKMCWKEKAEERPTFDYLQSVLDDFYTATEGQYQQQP

[5] = molecular target: T2, Tyrosine-protein kinase Lyn; assay: Inhibition of LYN incubated for 30 mins prior to substrate addition study done at apparent ATP Km for enzyme
Target sequence in this assay (P07948 whole entry): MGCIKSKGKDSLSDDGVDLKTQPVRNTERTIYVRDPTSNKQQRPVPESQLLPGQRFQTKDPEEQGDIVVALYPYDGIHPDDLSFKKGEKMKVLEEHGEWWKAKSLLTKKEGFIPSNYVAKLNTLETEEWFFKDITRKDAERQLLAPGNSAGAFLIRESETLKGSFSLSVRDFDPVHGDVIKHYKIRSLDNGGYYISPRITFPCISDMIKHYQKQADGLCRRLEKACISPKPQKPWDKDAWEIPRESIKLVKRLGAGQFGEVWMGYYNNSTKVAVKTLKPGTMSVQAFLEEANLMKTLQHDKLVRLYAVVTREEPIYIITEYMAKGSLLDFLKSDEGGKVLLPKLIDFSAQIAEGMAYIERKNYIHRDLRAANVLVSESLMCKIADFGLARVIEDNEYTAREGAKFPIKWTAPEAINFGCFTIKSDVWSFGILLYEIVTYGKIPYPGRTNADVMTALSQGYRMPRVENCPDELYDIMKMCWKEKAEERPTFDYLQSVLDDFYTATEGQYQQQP

[6] = system: U2OS; assay: Growth inhibition of human U2OS cells after 92 hrs by CellTiter-Blue assay; type: functional
[7] = molecular target: T3, Serine/threonine-protein kinase Nek2 (Homo sapiens, UniProt P51955)
T3 sequence (P51955 whole entry): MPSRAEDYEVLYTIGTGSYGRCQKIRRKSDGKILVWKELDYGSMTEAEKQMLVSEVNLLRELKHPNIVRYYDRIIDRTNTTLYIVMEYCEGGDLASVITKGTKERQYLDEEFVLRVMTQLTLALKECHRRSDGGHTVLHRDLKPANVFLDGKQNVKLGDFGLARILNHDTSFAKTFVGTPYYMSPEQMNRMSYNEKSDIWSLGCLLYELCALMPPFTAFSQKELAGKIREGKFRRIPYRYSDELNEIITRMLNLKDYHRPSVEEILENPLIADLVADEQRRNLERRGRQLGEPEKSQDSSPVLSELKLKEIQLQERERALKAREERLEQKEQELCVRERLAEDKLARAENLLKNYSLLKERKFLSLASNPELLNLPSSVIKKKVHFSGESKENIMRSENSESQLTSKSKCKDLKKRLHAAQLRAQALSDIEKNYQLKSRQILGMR

[8] = molecular target: T3, Serine/threonine-protein kinase Nek2; remark: listed apart in the source
Description: Inhibition of Nek2-mediated C-Nap1 phosphorylation in human U2OS cells after 3 hrs by immunofluorescence microscopy

[9] = molecular target: Aurora kinase A (Homo sapiens) (UniProt O14965); conditions: 1 uM
Aurora kinase A (Homo sapiens), sequence (O14965 whole entry): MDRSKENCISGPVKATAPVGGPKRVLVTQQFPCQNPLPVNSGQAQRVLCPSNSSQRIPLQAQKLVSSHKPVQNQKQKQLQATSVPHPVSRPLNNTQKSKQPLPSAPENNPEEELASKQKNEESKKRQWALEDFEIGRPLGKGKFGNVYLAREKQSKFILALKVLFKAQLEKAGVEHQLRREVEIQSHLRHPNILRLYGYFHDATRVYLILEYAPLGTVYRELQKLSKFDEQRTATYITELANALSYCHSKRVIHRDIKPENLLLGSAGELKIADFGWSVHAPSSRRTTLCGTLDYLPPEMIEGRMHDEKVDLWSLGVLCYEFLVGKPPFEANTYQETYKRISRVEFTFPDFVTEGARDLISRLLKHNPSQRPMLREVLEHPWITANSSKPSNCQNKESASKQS

[10] = molecular target: Proto-oncogene tyrosine-protein kinase Src (Homo sapiens, UniProt P12931); conditions: 1 uM
Proto-oncogene tyrosine-protein kinase Src, sequence (P12931 2-536 limits assumed): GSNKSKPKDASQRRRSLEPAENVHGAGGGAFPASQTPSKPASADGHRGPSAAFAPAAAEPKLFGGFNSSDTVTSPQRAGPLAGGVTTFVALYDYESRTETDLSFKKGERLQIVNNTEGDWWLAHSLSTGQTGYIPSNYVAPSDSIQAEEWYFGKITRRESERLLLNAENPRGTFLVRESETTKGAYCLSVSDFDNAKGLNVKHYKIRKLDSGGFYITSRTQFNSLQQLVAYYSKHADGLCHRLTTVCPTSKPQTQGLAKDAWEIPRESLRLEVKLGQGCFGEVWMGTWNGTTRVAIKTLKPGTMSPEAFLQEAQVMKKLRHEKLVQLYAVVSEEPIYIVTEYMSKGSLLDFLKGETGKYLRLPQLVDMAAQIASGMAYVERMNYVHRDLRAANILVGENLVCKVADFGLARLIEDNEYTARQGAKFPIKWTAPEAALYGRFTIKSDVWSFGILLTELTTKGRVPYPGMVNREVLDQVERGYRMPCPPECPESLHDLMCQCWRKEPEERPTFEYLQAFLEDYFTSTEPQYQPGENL

C[C@H](/C=C\C(F)(F)F)Oc1cc(-c2cc(-c3cc(CN(C)C)cs3)cnc2N)ccc1C(N)=O
pIC50 [1]: 5.07
inhibition [2]: 2%
inhibition [3]: 46%
inhibition [4]: 43%
pIC50 [5]: 5.87
GI50 [6]: 1820 nM
pIC50 [7]: 7.66
pIC50 [8]: 6.10
inhibition [9]: 19%
inhibition [10]: 51%
